Data from ChEMBL document CHEMBL1121455, “N-(alpha-Hydroxyalkanoyl) derivatives of Leu-Val-Phe-OCH3 as inhibitors of renin” (J Med Chem, 1980).
pKi: −log10 of the molar value. Residues, ends and D or L forms follow the SMILES beside them.

Target: T1, Renin (Homo sapiens, UniProt P00797)
T1 sequence (P00797 whole entry): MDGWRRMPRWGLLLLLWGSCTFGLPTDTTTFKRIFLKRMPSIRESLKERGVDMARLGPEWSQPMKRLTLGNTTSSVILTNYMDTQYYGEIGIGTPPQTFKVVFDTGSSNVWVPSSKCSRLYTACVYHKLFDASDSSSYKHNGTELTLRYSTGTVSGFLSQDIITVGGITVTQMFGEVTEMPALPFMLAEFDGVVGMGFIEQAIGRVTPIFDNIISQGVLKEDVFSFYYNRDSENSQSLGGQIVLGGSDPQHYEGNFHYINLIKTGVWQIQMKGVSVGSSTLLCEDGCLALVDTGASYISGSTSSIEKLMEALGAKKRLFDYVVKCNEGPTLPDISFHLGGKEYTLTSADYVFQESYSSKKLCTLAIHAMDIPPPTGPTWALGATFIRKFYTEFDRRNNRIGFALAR
Assay: Inhibition of human amniotic renin was tested and determined by Dixon plots

Structure (SMILES) | pKi
COC(=O)[C@H](Cc1ccccc1)NC(=O)[C@@H](NC(=O)[C@H](CC(C)C)NC(=O)[C@@H](O)CC(C)C)C(C)C | 3.64
COC(=O)[C@H](Cc1ccccc1)NC(=O)[C@@H](NC(=O)[C@H](CC(C)C)NC(=O)[C@@H](O)C(C)C)C(C)C | 3.52
COC(=O)[C@H](Cc1ccccc1)NC(=O)[C@@H](NC(=O)[C@H](CC(C)C)NC(=O)[C@H](O)c1ccccc1)C(C)C | 3.01
COC(=O)[C@H](Cc1ccccc1)NC(=O)[C@@H](NC(=O)[C@H](CC(C)C)NC(=O)[C@@H](O)c1ccccc1)C(C)C | 3.28
COC(=O)[C@H](Cc1ccccc1)NC(=O)[C@@H](NC(=O)[C@H](CC(C)C)NC(=O)[C@H](O)CC(C)C)C(C)C | 3.22
COC(=O)[C@H](Cc1ccccc1)NC(=O)[C@@H](NC(=O)[C@H](CC(C)C)NC(=O)[C@H](O)C(C)C)C(C)C | 2.75
COC(=O)[C@H](Cc1ccccc1)NC(=O)[C@@H](NC(=O)[C@H](CC(C)C)NC(=O)[C@@H](N)CC(C)C)C(C)C (HELM PEPTIDE1{L.L.V.F.[CO[*:1]]}$$$$V2.0) | 2.94
COC(=O)[C@H](Cc1ccccc1)NC(=O)[C@@H](NC(=O)[C@H](CC(C)C)NC(=O)[C@@H](O)Cc1ccccc1)C(C)C (HELM PEPTIDE1{[O=C([C@@H](O)Cc1ccccc1)[*:2]].L.V.F.[CO[*:1]]}$$$$V2.0) | 3.17
